From ChEMBL document CHEMBL1201862, “PubChem BioAssay data set” (2004)
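Growth conditions: 96-well plates. Treatment: test compound, 48 hours, 5 concentrations. Analysis: linear interpolation between bracketing concentrations; unreached endpoints set to highest concentration. GI50: concentration for 50% inhibition of growth.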 Activity calls are given as the source filed them. Cut-off read from the data, not from the text of the source: active = GI50 up to about 1.1 µM and inactive = higher.

Tests used:
Test in all cases: growth of human tumour cells (NCI), 48 h
MDA-N = test system: MDA-N
T47D = test system: T47D
PC-3 = test system: PC-3
MDA-MB-231 = test system: MDA-MB-231
DLD-1 = test system: DLD-1
RXF 631 = test system: RXF 631
M19-MEL = test system: M19-MEL
DMS-273 = test system: DMS-273
786-0 = test system: 786-0

`C=CCNC(=S)N/N=C1\C(=O)Nc2ccc([N+](=O)[O-])cc21` was tested, and the GI50 (MDA-N) was 83 µM (inactive), the GI50 (T47D) was 25.5 µM (inactive) and the GI50 (PC-3) was > 100 µM (inactive). The GI50 (MDA-MB-231) was > 100 µM (inactive).

For `COC1/C=C/C(C)C(C(C)C(OC)C(C)CCC(=O)C(C)C(C/C=C/N(C)C=O)OC)OC(=O)/C=C/C=C(\C)CC(OC)CC2=CC(=O)O[C@H](C2)C(C)C(OC)CC(OC)/C=C/C(C)C(OC)C1` (some centres not stated), the GI50 (PC-3) was 0.00989 µM (active).

In the case of `COc1nc2[nH]ccc2c(=O)[nH]1`, the GI50 (DLD-1) is reported as > 100 µM (inactive) and the GI50 (RXF 631) is reported as > 100 µM (inactive).

For `FC(F)(F)C(C1=NC(C(F)(F)F)(C(F)(F)F)N=C(N2CCOCC2)O1)C(F)(F)F`, the GI50 (MDA-N) was 19.1 µM (inactive), the GI50 (T47D) was 23.4 µM (inactive) and the GI50 (PC-3) was 16.9 µM (inactive). The GI50 (MDA-MB-231) was 14.4 µM (inactive).

`COc1ccc(C2COc3cc(O)c(O)cc3C2)cc1` (configuration not stated) was tested, and the GI50 (DLD-1) was 9.93 µM (inactive), the GI50 (M19-MEL) was 15.1 µM (inactive) and the GI50 (DMS-273) was 33.3 µM (inactive).

For `COC1OC(=O)[C@H]2O[N+]([O-])=C(C)[C@@H]12` (some centres not stated), the GI50 (DLD-1) was > 100 µM (inactive) and the GI50 (M19-MEL) was > 100 µM (inactive).

For `CC(=O)OCC1OC(n2c(-c3ccc(Cl)cc3)cc(-c3ccccc3)c(C#N)c2=S)C(OC(C)=O)C(OC(C)=O)C1OC(C)=O` (configuration not stated), the GI50 (MDA-N) was 11.3 µM (inactive), the GI50 (T47D) was 18.7 µM (inactive) and the GI50 (PC-3) was 11.3 µM (inactive). The GI50 (MDA-MB-231) was 4.33 µM (inactive) and the GI50 (786-0) was 12.2 µM (inactive).

With `COc1ccc(CCCC(=O)O)c(C)c1` the GI50 (MDA-N) was 62.4 µM (inactive), the GI50 (T47D) was 50.8 µM (inactive) and the GI50 (PC-3) was 37.9 µM (inactive). The GI50 (MDA-MB-231) was 36.1 µM (inactive) and the GI50 (786-0) was 30.1 µM (inactive).

In the case of `c1ccc(CSC(SCc2ccccc2)c2cccc3ccccc23)cc1`, the GI50 (MDA-N) is reported as > 10 µM (inactive), the GI50 (T47D) is reported as 9.73 µM (inactive) and the GI50 (PC-3) is reported as > 10 µM (inactive). For the same compound, the GI50 (MDA-MB-231) was > 10 µM (inactive).

`CCN(CC)CCCC(C)Nc1cc(-c2ccccc2)nc2cc(OC)ccc12` (configuration not stated) was tested, and the GI50 (M19-MEL) was 10.1 µM (inactive).

For `O=c1c(-c2ccccc2)c(SCCCN2CCCCC2)n(-c2ccccc2)c(=S)n1-c1ccccc1`, the GI50 (PC-3) was 16.5 µM (inactive) and the GI50 (MDA-MB-231) was 14.5 µM (inactive).

For `N#CC1(CCCI)CCCC1`, the GI50 (DLD-1) was 19.1 µM (inactive), the GI50 (M19-MEL) was 5.36 µM (inactive) and the GI50 (RXF 631) was 1.34 µM (inactive). The GI50 (DMS-273) was 4.55 µM (inactive).

In the case of `Cc1c2ccncc2cc2c1[nH]c1ccccc12`, the GI50 (DLD-1) is reported as 5.01 µM (inactive), the GI50 (M19-MEL) is reported as 3.81 µM (inactive) and the GI50 (DMS-273) is reported as 1.19 µM (inactive).

In the case of `NC1CCCCC1.O=P(O)(O)C(CSc1ccccc1)P(=O)(O)O`, the GI50 (DLD-1) is reported as > 100 µM (inactive), the GI50 (M19-MEL) is reported as > 100 µM (inactive) and the GI50 (DMS-273) is reported as > 100 µM (inactive).

With `Cc1cc(N(CCC#N)S(=O)(=O)c2ccccc2)ccc1/C=N\c1cccc(C(=O)O)c1` the GI50 (M19-MEL) was > 100 µM (inactive) and the GI50 (RXF 631) was > 100 µM (inactive).

`CC1(C)CCc2c(ccc(C(=O)/C=C/c3ccc(O)cc3)c2O)O1` [DORSMANNIN A] was tested, and the GI50 (T47D) was 1.56 µM (inactive), the GI50 (PC-3) was 8.57 µM (inactive) and the GI50 (MDA-MB-231) was 9.25 µM (inactive).

With `O=C(NC(COC(=O)C(Cc1ccccc1)NC(=O)c1ccccc1)Cc1ccccc1)c1ccccc1` (configuration not stated) the GI50 (PC-3) was > 50 µM (inactive).

In the case of `CCOC(=O)Nc1ccc(S(=O)(=O)NCCCl)cc1.CCOC(=O)Nc1ccc(S(=O)(=O)NCCCl)cc1.O=C(O)c1ccc(/N=N/Cl)cc1O`, the GI50 (DLD-1) is reported as > 100 µM (inactive), the GI50 (M19-MEL) is reported as > 100 µM (inactive) and the GI50 (RXF 631) is reported as > 100 µM (inactive). For the same compound, the GI50 (DMS-273) was > 100 µM (inactive).

`Cc1ccc([N+](=O)[O-])cc1NC(=O)C(=O)C(C(=O)c1ccccc1F)C1OC(=O)c2ccccc21` (configuration not stated) was tested, and the GI50 (DLD-1) was 41.5 µM (inactive), the GI50 (M19-MEL) was 33.4 µM (inactive) and the GI50 (RXF 631) was 32.7 µM (inactive). The GI50 (DMS-273) was 36.3 µM (inactive).
